Results taken from PMC3462190, “A Peptidic Unconjugated GRP78/BiP Ligand Modulates the Unfolded Protein Response and Induces Prostate Cancer Cell Death” (PLoS ONE, 2012).
Where no end group is shown, it is not given here.

System: GRP78/BiP
Experiment: GST pull-down with GRP78/BiP
Assay type: binding
Conditions: for interaction with GRP78/BiP: GST-fused protein/peptide, 22Rv.1 cell lysate, Western blot
Method: Expression of GST fusion proteins for GST-pull-down experiments were performed essentially as described previously.
Figure 1 Bag-1 proteins interact with the molecular chaperone GRP78/BiP. A. The Bag-1 family of proteins binds GRP78/BiP. GST pull-down assay was performed incubating 5 µg each of GST-fused Bag-1 proteins with 400 µg of 22Rv.1 cell lysate. Western blotting with a specific antibodiy against GRP78/BiP was used to detect the binding and an anti-GST antibody was used to determine the amount of bacterially purified protein employed in the assay. B. Bag-1 and GRP78 interact in vivo. GRP78 was immunoprecipitated with an anti-GRP78/BiP antibody or IgG as control in 22Rv.1 cells. Western blotting with an anti-Bag-1 and anti-GRP78 antibody was performed to determine GRP78-Bag-1 interaction. C. Bag-1 and GRP78/BiP show a perinuclear colocalization. Confocal microscopic analyses were carried out in 22Rv.1 cells that have been paraformaldehyde-fixed and stained with a Bag-1 antibody to detect Bag-1 (green channel) and a GRP78/BiP specific antibody to detect GRP78/BiP (red channel). The orange staining in the merge of the two channels indicates the degree of co-localization of the two proteins. All images (40X) were acquired with a Leica TCS SPE confocal microscope (Leica Microsystems; Scale bars indicate 25 µm). D. Diagrammatic representation of the domains of GRP78. E. Bag-1 binds to multiple sites on GRP78. GST-pull down assay performed incubating 500 µg lysate of HEK-293 cells transfected with an HA-tagged Bag-1 and 10 µg GST-fused GRP78 full length and its ATPase and substrate binding domain (SBD). Western blot analysis was carried out using an HA antibody to detect the Bag-1-tagged protein.
Figure 5 An N-terminal unfolded fragment of the Bag-1 peptide is sufficient to reduce tumor cell growth. A. Schematic diagram of the Bag-1 peptide and its deletion mutants. The ubiquitin-like domain is represented in blue and the BAG domain in red. The numbers refer to the amino acid positions of the different domains. The amino acid residues are numbered following the numbering for Bag-1L. B. Prediction of the secondary structure of the Bag-1 peptide, showing an N-terminal β-hairpin from the ubiquitin-like domain (blue) and a C-terminal α-helix from the BAG domain (red). C. Normalized circular dichroism spectra of the Bag-1 peptides. 30 µM of the Bag-1 peptide were measured in 20 mM KHPO4 buffer, pH 6.8 (black line). […] 12 µM of the N-term peptide (green line) and 11 µM of C-term (blue line) were measured under the same conditions. […] Cells transfected with the indicated constructs were selected in medium containing neomycin and the colonies formed were quantified. […] Tumor size was measured once per week using a caliper and expressed as tumor volume in mm^3. […]

| Molecule | interaction with GRP78/BiP | interaction with full length GRP78/BiP (10 µg GST-fused GRP78 full length, lysate of HEK-293 cells expressing HA-tagged Bag-1) |
| --- | --- | --- |
| N-terminal peptide: N-terminal 40 residues of the Bag-1 peptide (Bag-1L 202–241) (TPLSALGIQDGCRVMLIGKKNSPQEEVELKKLKHLEKSVE; not fully specified) | bound to GRP78/BiP |  |
| ΔUbi peptide: Bag-1 peptide lacking the ubiquitin-like domain portion (Bag-1L 220–269) (KKNSPQEEVELKKLKHLEKSVEKIADQLEELNKELTGIQQGFLPKDLQAE; not fully specified) | abrogated the binding to GRP78 |  |
| C-terminal peptide: 28 C-terminal fragment of the Bag-1 peptide (Bag-1L 241–269) (EKIADQLEELNKELTGIQQGFLPKDLQAE; not fully specified) | not the C-terminal peptide bound to GRP78/BiP |  |
| Bag-1: cochaperone Bag-1, HA-tagged (pcDNA3.1-HA-Bag-1), or endogenous (protein, left off: HA, end not stated, kept, cochaperone Bag-1, HA-tagged (pcDNA3.1-HA-Bag-1), or endogenous) TPLSALGIQDGCRVMLIGKKNSPQEEVELKKLKHLEKSVEKIADQLEELNKELTGIQQGFLPKDLQAE |  | interacted not only with the full length GRP78/BiP |
